Results published in patent US20040228844A1, “Method for controlling harmful plant-parasitic nematodes” (priority 2003, published 2004).

Tests used:
Meloidogyne incognita [1] = assay: Test Example 1: root-knot damage of cucumber seedlings in nematode-infested soil; conditions: 20 kg per 1000 m^2, soil mixing, 50 days after transplantation, scale 0 (no root-knots) to 5 (dead), average per 10 plants
Procedure: To 5 kg of nematode-infested soil (nematode density: 2255 nematodes per 20 g (investigation method: Bellman's method)) in which Meloidogyne incognita seriously grew was applied each (100 mL) of the test solutions diluted at given concentrations: and then the resulting soil was thoroughly mixed. […] (diameter: about 3 mm), 500 g of each of the soil to which each test solution was applied and mixed was placed. Cucumber seedlings (14 days after sowing, 2 plants per cup, 5 replications) were transplanted in the cup, which contained each treated soil. After transplantation, the plants were left in a glass greenhouse.
The degree of root-knot damages was evaluated according to the following criteria:
5: The plant is withered and dead due to parasitism of nematodes.
4: A number of root-knots, which range to form-large root-knots, are observed on the entire roots.
3: Root-knots are observed on the entire roots, and large root-knots being partly formed.
2: Formation of root-knots is partly observed on the root, and some of them ranging, but no large root-knot is observed.
1: A little formation of root-knots is observed.
0: No formation of root-knots is found.

Meloidogyne incognita [2] = assay: Test Example 2: gall control on cucumber seedlings in nematode-infested soil; format: in vivo; conditions: 20 kg /1000 m^2, 32 days after transplantation, (C−S)×100/C
Procedure: To 3 kg of the Meloidogyne incognita-infested soil was applied each (100 mL) of the test solutions diluted at given concentrations and then the resulting soil was thoroughly mixed.
The gall control value was calculated by the following equation:
Gall control value=(C−S)×100/C
wherein C is an average gall number per plant in a non-treated group, and S is an average gall number per plant in a treated group.

SMILES: CSCC[C@H](N)C(=O)O [Component A Agent, methionine]
- Average Degree of Root-Knots Damages (Meloidogyne incognita [1]): 3.2
- Gall Control Value (Meloidogyne incognita [2]): 44
